# Experiments:
# Format in all cases: binding
# [1] = biological target: T1, SW480 colon carcinoma cells lysate proteins (Homo sapiens, UniProt Q15102); conditions: PreyGene PAFAH1B3; SW480 cells
# T1 sequence (Q15102 1-231): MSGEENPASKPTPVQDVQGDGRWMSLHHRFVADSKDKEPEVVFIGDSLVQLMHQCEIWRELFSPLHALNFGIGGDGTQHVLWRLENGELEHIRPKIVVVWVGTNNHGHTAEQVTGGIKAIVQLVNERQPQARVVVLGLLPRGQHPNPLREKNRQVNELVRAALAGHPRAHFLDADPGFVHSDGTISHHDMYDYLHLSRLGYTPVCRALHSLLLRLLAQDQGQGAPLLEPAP
# [2] = biological target: T2, SW480 colon carcinoma cells lysate proteins (Homo sapiens, UniProt P22314); conditions: PreyGene UBA1
# T2 sequence (P22314 1-1058): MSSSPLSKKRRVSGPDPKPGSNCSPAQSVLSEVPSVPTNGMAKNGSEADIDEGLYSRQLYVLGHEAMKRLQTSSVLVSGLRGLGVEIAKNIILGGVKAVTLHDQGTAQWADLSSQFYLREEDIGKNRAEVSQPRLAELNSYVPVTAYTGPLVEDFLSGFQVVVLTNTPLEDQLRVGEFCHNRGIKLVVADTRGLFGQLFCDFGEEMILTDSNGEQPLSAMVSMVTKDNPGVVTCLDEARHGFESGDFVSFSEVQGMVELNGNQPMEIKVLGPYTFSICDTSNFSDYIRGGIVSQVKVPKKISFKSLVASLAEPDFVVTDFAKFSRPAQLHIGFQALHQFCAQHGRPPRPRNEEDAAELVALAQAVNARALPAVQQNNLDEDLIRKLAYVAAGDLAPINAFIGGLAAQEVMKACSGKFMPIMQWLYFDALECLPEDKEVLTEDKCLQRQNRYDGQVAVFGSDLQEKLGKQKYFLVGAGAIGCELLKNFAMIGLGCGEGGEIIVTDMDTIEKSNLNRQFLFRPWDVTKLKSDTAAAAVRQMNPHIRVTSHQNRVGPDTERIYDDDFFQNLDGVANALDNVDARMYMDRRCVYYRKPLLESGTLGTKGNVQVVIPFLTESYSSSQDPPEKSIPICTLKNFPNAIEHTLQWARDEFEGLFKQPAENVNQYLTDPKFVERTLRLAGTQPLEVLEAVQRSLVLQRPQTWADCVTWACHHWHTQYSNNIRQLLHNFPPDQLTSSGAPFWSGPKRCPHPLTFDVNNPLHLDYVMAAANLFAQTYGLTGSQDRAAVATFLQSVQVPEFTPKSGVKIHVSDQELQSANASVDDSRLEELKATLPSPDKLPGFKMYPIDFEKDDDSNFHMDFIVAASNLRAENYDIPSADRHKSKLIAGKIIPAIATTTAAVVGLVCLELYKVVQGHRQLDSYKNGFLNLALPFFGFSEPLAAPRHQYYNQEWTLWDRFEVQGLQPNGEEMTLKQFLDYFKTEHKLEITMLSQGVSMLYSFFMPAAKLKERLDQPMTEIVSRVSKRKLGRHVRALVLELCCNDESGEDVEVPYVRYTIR
# [3] = biological target: SW480 colon carcinoma cells lysate proteins (Homo sapiens, UniProt P49591); conditions: PreyGene SARS
# SW480 colon carcinoma cells lysate proteins (Homo sapiens, UniProt P49591), sequence (P49591 whole entry, looked up): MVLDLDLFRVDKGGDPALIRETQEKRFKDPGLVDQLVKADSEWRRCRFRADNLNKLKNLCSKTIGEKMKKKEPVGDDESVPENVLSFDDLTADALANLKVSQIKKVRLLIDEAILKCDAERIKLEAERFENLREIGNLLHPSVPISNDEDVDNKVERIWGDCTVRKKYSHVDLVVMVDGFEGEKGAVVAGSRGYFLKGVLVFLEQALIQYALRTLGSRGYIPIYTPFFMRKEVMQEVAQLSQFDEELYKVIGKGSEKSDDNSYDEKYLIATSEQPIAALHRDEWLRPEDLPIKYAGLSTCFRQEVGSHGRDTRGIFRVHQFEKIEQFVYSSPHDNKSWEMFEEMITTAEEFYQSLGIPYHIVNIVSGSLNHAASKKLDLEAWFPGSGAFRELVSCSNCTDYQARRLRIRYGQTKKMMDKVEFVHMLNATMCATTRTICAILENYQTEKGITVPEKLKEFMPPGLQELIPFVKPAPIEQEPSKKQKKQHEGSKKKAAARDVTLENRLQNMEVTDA
# [4] = biological target: T3, SW480 colon carcinoma cells lysate proteins (Homo sapiens, UniProt P40926); conditions: PreyGene MDH2
# T3 sequence (P40926 25-338): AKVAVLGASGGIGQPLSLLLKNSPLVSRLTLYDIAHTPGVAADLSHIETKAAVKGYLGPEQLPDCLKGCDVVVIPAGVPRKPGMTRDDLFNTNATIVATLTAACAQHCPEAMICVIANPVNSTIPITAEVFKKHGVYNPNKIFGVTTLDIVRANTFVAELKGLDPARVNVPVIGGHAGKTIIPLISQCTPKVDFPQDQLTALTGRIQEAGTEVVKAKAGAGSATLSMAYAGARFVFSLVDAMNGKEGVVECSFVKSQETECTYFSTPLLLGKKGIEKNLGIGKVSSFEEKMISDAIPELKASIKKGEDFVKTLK
# [5] = biological target: SW480 colon carcinoma cells lysate proteins (Homo sapiens, UniProt P62826); conditions: PreyGene RAN
# [6] = biological target: T4, SW480 colon carcinoma cells lysate proteins (Homo sapiens, UniProt Q16181); conditions: PreyGene 07-Sep
# T4 sequence (Q16181 1-437): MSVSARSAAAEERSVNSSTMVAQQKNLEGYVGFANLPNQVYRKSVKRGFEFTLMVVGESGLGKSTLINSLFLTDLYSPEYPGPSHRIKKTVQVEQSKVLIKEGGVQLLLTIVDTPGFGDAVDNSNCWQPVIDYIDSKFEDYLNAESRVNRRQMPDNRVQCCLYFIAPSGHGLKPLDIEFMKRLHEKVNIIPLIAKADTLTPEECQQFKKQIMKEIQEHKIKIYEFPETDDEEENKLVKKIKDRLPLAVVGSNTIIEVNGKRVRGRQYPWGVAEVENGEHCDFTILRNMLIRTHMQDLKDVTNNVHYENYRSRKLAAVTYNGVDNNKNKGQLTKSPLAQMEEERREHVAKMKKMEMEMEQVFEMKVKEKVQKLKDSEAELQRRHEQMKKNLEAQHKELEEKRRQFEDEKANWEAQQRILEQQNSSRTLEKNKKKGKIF
smiles,measurement,setting,value
C[C@H](Oc1cc(-c2cnn(C3CCNCC3)c2)cnc1N)c1c(Cl)ccc(F)c1Cl [(5)-crizotinib],AvgP,[1],0
same,SC.Exp. 1-1,[1],1
same,SC.Exp. 1-2,[1],1
same,SC.Exp. 2-1,[1],0
same,SC.Exp. 2-2,[1],0
same,SC.Exp. Sum,[1],2
same,AvgP,[2],0.4997
same,SC.Exp. 1-1,[2],15
same,SC.Exp. 1-2,[2],15
same,SC.Exp. 2-1,[2],0
same,SC.Exp. 2-2,[2],0
same,Sum (SC.Exp.),[2],30
same,AvgP,[3],0.4649
same,SC.Exp. 1-1,[3],4
same,SC.Exp. 1-2,[3],4
same,SC.Exp. 2-1,[3],0
same,SC.Exp. 2-2,[3],0
same,Sum (SC.Exp.),[3],8
same,AvgP,[4],0.4441
same,SC.Exp. 1-1,[4],5
same,SC.Exp. 1-2,[4],5
same,SC.Exp. 2-1,[4],0
same,SC.Exp. 2-2,[4],0
same,Sum (SC.Exp.),[4],10
same,AvgP,[5],0.3036
same,SC.Exp. 1-1,[5],5
same,SC.Exp. 1-2,[5],6
same,SC.Exp. 2-1,[5],0
same,SC.Exp. 2-2,[5],0
same,Sum (SC.Exp.),[5],11
same,AvgP,[6],0.2962
same,SC.Exp. 1-1,[6],3
same,SC.Exp. 1-2,[6],3
same,SC.Exp. 2-1,[6],0
same,SC.Exp. 2-2,[6],0
same,Sum (SC.Exp.),[6],6

# Reference: US9446039B2, “Aminoheteroaryl compounds as MTH1 inhibitors” (CEMM—FORSCHUNGSZENTRUM FÜR MOLEKULARE MEDIZIN GMBH, priority 2012, dated 2016)
